Source: ChEMBL document CHEMBL1148751, “Optimization of the indenone ring of indenoisoquinoline topoisomerase I inhibitors” (2007)

Tests used:
Assay type in all cases: functional
DU-145 = assay: Cytotoxicity against human DU145 cells
MDA-MB-435 = assay: Cytotoxicity against human MDA-MB-435 cells
OVCAR-3 = assay: Cytotoxicity against human OVCAR-3 cells
HCT-116 = assay: Cytotoxicity against human HCT116 cells
HOP-62 = assay: Cytotoxicity against human HOP62 cells
SN12C = assay: Cytotoxicity against human SN12C cells
SF-539 = assay: Cytotoxicity against human SF539 cells
UACC-62 = assay: Cytotoxicity against human UACC62 cells

| Structure (SMILES) | GI50 (DU-145) [nM] | GI50 (MDA-MB-435) [µM] | GI50 (OVCAR-3) [µM] | GI50 (HCT-116) [nM] | GI50 (HOP-62) [µM] | GI50 (SN12C) [µM] | GI50 (SF-539) [nM] | GI50 (UACC-62) [µM] |
| --- | --- | --- | --- | --- | --- | --- | --- | --- |
| COc1cc2c3c(n(CCCN)c(=O)c2cc1OC)-c1ccc([N+](=O)[O-])cc1C3=O | 2090 | 15.8 | 16.6 | 1320 | 0.617 | 11.7 | 3720 | 11.5 |
| COc1ccc2c(c1)C(=O)c1c-2n(CCCN=[N+]=[N-])c(=O)c2cc([N+](=O)[O-])ccc12 | < 1 | 0.251 | 0.155 | < 1 | < 0.001 | – | < 1 | – |
| COc1cc2c3c(n(CCCCl)c(=O)c2cc1OC)-c1ccccc1C3=O | > 100000 | > 100 | 10.7 | 2460 | 4.47 | > 100 | 14100 | 12.3 |
| [N-]=[N+]=NCCCn1c2c(c3ccc([N+](=O)[O-])cc3c1=O)C(=O)c1ccccc1-2 | – | – | – | – | – | – | – | 29.5 |
| Cc1ccc2c(c1)C(=O)c1c-2n(CCCBr)c(=O)c2cc([N+](=O)[O-])ccc12 | 50100 | > 100 | 70.8 | 18600 | 24.5 | 46.8 | > 100000 | 26.3 |
| COc1cc2c3c(n(CCCBr)c(=O)c2cc1OC)-c1ccc(F)cc1C3=O | 4360 | 43.7 | 24.5 | 5750 | 4.17 | 15.5 | 3550 | 3.89 |
| [N-]=[N+]=NCCCn1c2c(c3ccc([N+](=O)[O-])cc3c1=O)C(=O)c1cc(F)ccc1-2 | 437 | 2.88 | 3.47 | 309 | 0.251 | 0.302 | 457 | 0.38 |
| CSc1ccc2c(c1)C(=O)c1c-2n(CCCN=[N+]=[N-])c(=O)c2cc([N+](=O)[O-])ccc12 | 1150 | 6.03 | 3.89 | 776 | 0.603 | 1.05 | 891 | 0.708 |
| COc1cc2c3c(n(CCCN=[N+]=[N-])c(=O)c2cc1OC)-c1ccccc1C3=O | 28200 | 9.77 | 4.57 | 1820 | 3.55 | 13.8 | 4680 | 2.63 |
| [N-]=[N+]=NCCCn1c2c(c3ccc([N+](=O)[O-])cc3c1=O)C(=O)c1cc(Br)ccc1-2 | 14800 | > 100 | > 100 | 3020 | 56.2 | > 100 | > 100000 | > 100 |
| [N-]=[N+]=NCCCn1c2c(c3ccc([N+](=O)[O-])cc3c1=O)C(=O)c1cc(I)ccc1-2 | 1780 | 34.7 | 18.2 | 2140 | 1.82 | 3.89 | 2240 | 3.31 |
| COc1cc2c3c(n(CCCN)c(=O)c2cc1OC)-c1ccc(F)cc1C3=O | 575 | 6.03 | 6.31 | 1380 | 0.603 | 4.36 | 1120 | 3.39 |
| CCc1ccc2c(c1)C(=O)c1c-2n(CCCN)c(=O)c2cc(OC)c(OC)cc12 | 1620 | 2 | 1.51 | – | 1.82 | 1.74 | 1620 | 1.82 |
| COc1cc2c3c(n(CCCCl)c(=O)c2cc1OC)-c1ccc(C#N)cc1C3=O | 10700 | > 100 | 12.9 | 15100 | 14.8 | 22.9 | 7240 | 6.76 |
| CCc1ccc2c(c1)C(=O)c1c-2n(CCCBr)c(=O)c2cc([N+](=O)[O-])ccc12 | > 50100 | > 50.1 | > 50.1 | > 50100 | 21.4 | > 50.1 | 28200 | 32.4 |
| COc1ccc2c(c1)C(=O)c1c-2n(CCCN)c(=O)c2cc([N+](=O)[O-])ccc12 | – | – | – | < 10 | < 0.01 | < 0.01 | < 10 | < 0.01 |
| COc1cc2c3c(n(C)c(=O)c2cc1OC)-c1cc2c(cc1C3=O)OCO2 | 37000 | 96 | – | 35000 | 1.3 | 68 | – | 4.2 |
| NCCCn1c2c(c3ccc([N+](=O)[O-])cc3c1=O)C(=O)c1cc(-c3ccccc3)ccc1-2 | 200 | 0.468 | 1.82 | 178 | 0.186 | 0.437 | 1620 | 1.51 |
| COC(=O)c1ccc2c(c1)C(=O)c1c-2n(CCCCl)c(=O)c2cc(OC)c(OC)cc12 | > 100000 | > 100 | > 100 | > 100000 | > 100 | > 100 | – | > 100 |
| COc1cc2c3c(n(CCCN)c(=O)c2cc1OC)-c1ccc(N)cc1C3=O | 2400 | 4.17 | 1.82 | 263 | – | 2.57 | 316 | 1.38 |
| CCc1ccc2c(c1)C(=O)c1c-2n(CCCN=[N+]=[N-])c(=O)c2cc(OC)c(OC)cc12 | > 100000 | > 100 | > 100 | – | 56.2 | > 100 | 57500 | 91.2 |
| NCCCn1c2c(c3ccc([N+](=O)[O-])cc3c1=O)C(=O)c1cc(Cl)ccc1-2 | < 10 | – | – | < 10 | < 0.01 | < 0.01 | < 10 | < 0.01 |
| COc1cc2c3c(n(CCCN)c(=O)c2cc1OC)-c1ccc(C#N)cc1C3=O | 12300 | 18.6 | 19.1 | 15900 | 3.98 | 16.6 | – | 17 |
| NCCCn1c2c(c3ccc([N+](=O)[O-])cc3c1=O)C(=O)c1ccccc1-2 | 14 | – | – | < 5 | – | 0.009 | – | – |
| O=C1c2cc(Br)ccc2-c2c1c1ccc([N+](=O)[O-])cc1c(=O)n2CCCCl | 214 | 0.282 | 0.575 | 3720 | 3.63 | 0.019 | 661 | – |
| O=C1c2ccccc2-c2c1c1ccc([N+](=O)[O-])cc1c(=O)n2CCCCl | – | – | – | – | 43.6 | – | – | – |
| Cc1ccc2c(c1)C(=O)c1c-2n(CCCN)c(=O)c2cc([N+](=O)[O-])ccc12 | 115 | 0.316 | 0.324 | 229 | 0.191 | 0.229 | 603 | – |
| O=C1c2cc(F)ccc2-c2c1c1ccc([N+](=O)[O-])cc1c(=O)n2CCCBr | 3390 | 37.2 | 46.8 | 7240 | 2.29 | 27.5 | – | 2.29 |
| COc1cc2c3c(n(CCCN=[N+]=[N-])c(=O)c2cc1OC)-c1ccc(N(C)C)cc1C3=O | > 100000 | > 100 | > 100 | – | > 100 | > 100 | > 100000 | > 100 |
